Laboratory results reported in PubChem BioAssay (NCI).
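How tested: cells in 96-well plates exposed to compound for 48 hours at five concentrations. Abbreviation: GI50, concentration required for 50% inhibition of growth. TGI marks complete inhibition of growth.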

Legend:
Test in all cases: NCI anticancer screen, dose series, 48 h
[1] = tested on: ACHN renal
[2] = tested on: DMS 273 small cell lung
[3] = tested on: K-562 leukemia
[4] = tested on: KM20L2 colon
[5] = tested on: LOX IMVI melanoma
[6] = tested on: NCI-H23 lung
[7] = tested on: OVCAR-5 ovarian
[8] = tested on: OVCAR-8 ovarian
[9] = tested on: SF-539 CNS
[10] = tested on: U251 CNS
[11] = tested on: UO-31 renal
[12] = tested on: SNB-78 CNS
[13] = tested on: MCF7 breast
[14] = tested on: T-47D breast
[15] = tested on: M19-MEL melanoma

## CC(=O)[CH-]C(=O)c1ccccc1.CC(=O)[CH-]C(=O)c1ccccc1.CC[C@H](CCC(C)[C@H]1CCC2[C@@H]3CC=C4C[C@@H]([O-])CC[C@]4(C)C3CC[C@@]21C)C(C)C.CC[C@H](CCC(C)[C@H]1CCC2[C@@H]3CC=C4C[C@@H]([O-])CC[C@]4(C)C3CC[C@@]21C)C(C)C.Cl.[Ti+4] (stereo partly specified)
[1]
  TGI: > 25 µM
[2]
  GI50: > 25 µM
  TGI: > 25 µM
[3]
  TGI: > 25 µM
[4]
  GI50: > 25 µM
  TGI: > 25 µM
[5]
  TGI: > 25 µM
[6]
  TGI: > 25 µM
[7]
  TGI: > 25 µM
[8]
  TGI: > 25 µM
[9]
  TGI: > 25 µM
[10]
  TGI: > 25 µM
[11]
  TGI: > 25 µM

## C=CCc1cc(OC)c(O)c(C(=O)/C=C/c2ccc(OC)c(OC)c2)c1
[1]
  TGI: 45.9 µM
[2]
  TGI: > 100 µM
[3]
  TGI: 41.8 µM
[5]
  TGI: 91.8 µM
[6]
  TGI: 30.5 µM
[7]
  TGI: 45.4 µM
[9]
  TGI: 48.1 µM
[12]
  TGI: > 100 µM
[10]
  TGI: 37.8 µM
[11]
  TGI: 29.6 µM

## CSc1ccccc1NC1=NCCO1
[1]
  TGI: > 100 µM
[3]
  TGI: > 100 µM
[5]
  TGI: > 100 µM
[13]
  TGI: > 100 µM
[6]
  TGI: > 100 µM
[7]
  TGI: > 100 µM
[8]
  TGI: > 100 µM
[9]
  TGI: > 100 µM
[14]
  TGI: > 100 µM
[10]
  TGI: > 100 µM
[11]
  TGI: > 100 µM

## C=C1C(=O)O[C@H]2C(=O)[C@H](C)CCC/C(C)=C/CC[C@@]3(C)O[C@@H]3C[C@@H]12
[1]
  TGI: 2.63 µM
[3]
  TGI: 10.2 µM
[5]
  TGI: 3.03 µM
[13]
  TGI: 15 µM
[6]
  TGI: 29.3 µM
[7]
  TGI: 18.9 µM
[8]
  TGI: 3.59 µM
[9]
  TGI: 6.63 µM
[14]
  TGI: 4.35 µM
[10]
  TGI: 13.3 µM
[11]
  TGI: 3.18 µM

## O=C(NCCc1ccccn1)c1ccc2cc(C(=O)N3CC(CCl)c4ccc([N+](=O)[O-])cc43)[nH]c2c1 (stereo unspecified)
[1]
  TGI: > 100 µM
[3]
  TGI: > 100 µM
[5]
  TGI: > 100 µM
[13]
  TGI: > 100 µM
[6]
  TGI: > 100 µM
[7]
  TGI: > 100 µM
[8]
  TGI: > 86.9 µM
[9]
  TGI: > 100 µM
[14]
  TGI: > 100 µM
[10]
  TGI: > 100 µM
[11]
  TGI: > 92.8 µM

## CC(=O)Nn1c(Cc2ccc(Cl)cc2)nn(C)c1=O
[1]
  TGI: > 100 µM
[3]
  TGI: > 100 µM
[5]
  TGI: > 100 µM
[13]
  TGI: > 100 µM
[6]
  TGI: > 100 µM
[7]
  TGI: > 100 µM
[8]
  TGI: > 100 µM
[9]
  TGI: > 100 µM
[14]
  TGI: > 100 µM
[10]
  TGI: > 100 µM
[11]
  TGI: > 100 µM

## CCCN(CCCC(NC(C)=O)C(=O)NCc1ccccc1)C(=O)N(C)N=O (stereo unspecified)
[1]
  TGI: > 100 µM
[2]
  TGI: > 100 µM
[3]
  TGI: > 100 µM
[4]
  TGI: > 100 µM
[5]
  TGI: > 100 µM
[15]
  TGI: > 100 µM
[6]
  TGI: > 100 µM
[7]
  TGI: > 100 µM
[8]
  TGI: > 100 µM
[9]
  TGI: > 100 µM
[12]
  TGI: > 100 µM
[10]
  TGI: > 100 µM

## COC(=O)c1cc(C#N)[nH]c1-c1ccc(Br)s1
[1]
  TGI: 31.9 µM
[3]
  TGI: > 48.4 µM
[5]
  TGI: 23.1 µM
[13]
  TGI: 18.6 µM
[6]
  TGI: 18.9 µM
[7]
  TGI: 24.1 µM
[8]
  TGI: 27.1 µM
[9]
  TGI: 27.2 µM
[14]
  TGI: 17.2 µM
[10]
  TGI: 24.8 µM
[11]
  TGI: 15.6 µM

## COc1ccc(/C(=N/Nc2nc3ccccc3n2Cc2ccccc2)C(=O)O)cc1
[1]
  TGI: > 100 µM
[3]
  TGI: 68.5 µM
[5]
  TGI: 35.5 µM
[13]
  TGI: 51.2 µM
[6]
  TGI: 43.3 µM
[7]
  TGI: > 100 µM
[8]
  TGI: > 100 µM
[9]
  TGI: 85.1 µM
[14]
  TGI: 70.7 µM
[10]
  TGI: > 100 µM
[11]
  TGI: 76.5 µM
